Experimental data as given in ChEMBL document CHEMBL6103622 (J Med Chem, 2025).
Activity calls are given as the source filed them. The calls are words filed in the database; no cut-off is given here.

Experiments:
[1] = biological target: T1, Macrophage colony-stimulating factor 1 receptor (Homo sapiens, UniProt P07333); assay: Inhibition of CSF-1R (unknown origin) at 1 uM
BMDM [2] = assay: (§1) Induction of repolarization of M2 like macrophage into M1 phenotype in female C57BL/6 mouse BMDM cells assessed as decrease in Mrc1 mRNA expression at 10 to 100 nM stimulated with mouse IL4/IL-13 for 24 hrs followed by compound addition and measured after 24 hrs by qPCR analysis; type: functional, cell-based; settings: dose 10-100 nM
MC-38 [3] = assay: Antitumor activity against mouse MC38 cells allografted in C57BL/6 mouse model assessed as downregulation of Arg1 mRNA expression in tumor at 10 to 20 mg/kg, ip administered once daily for 14 days by qPCR analysis; type: functional, organism-based; settings: dose 10-20 mg/kg, time 14.0 day
[4] = biological target: T1, Macrophage colony-stimulating factor 1 receptor; assay: Inhibition of CSF-1R (unknown origin)
[5] = biological target: T2, Macrophage colony-stimulating factor 1 receptor (Mus musculus) (UniProt P09581); assay: Inhibition of CSF-1R signaling pathway activation in female C57BL/6 mouse BMDM cells assessed as reduction in AKT phosphorylation at Ser473 residue at 100 nM preincubated with compounds for 4 hrs followed by M-CSF stimulation and measured after 30 mins by Western blot analysis; type: cell-based; settings: time 4.5 hrs
T2 sequence (whole entry): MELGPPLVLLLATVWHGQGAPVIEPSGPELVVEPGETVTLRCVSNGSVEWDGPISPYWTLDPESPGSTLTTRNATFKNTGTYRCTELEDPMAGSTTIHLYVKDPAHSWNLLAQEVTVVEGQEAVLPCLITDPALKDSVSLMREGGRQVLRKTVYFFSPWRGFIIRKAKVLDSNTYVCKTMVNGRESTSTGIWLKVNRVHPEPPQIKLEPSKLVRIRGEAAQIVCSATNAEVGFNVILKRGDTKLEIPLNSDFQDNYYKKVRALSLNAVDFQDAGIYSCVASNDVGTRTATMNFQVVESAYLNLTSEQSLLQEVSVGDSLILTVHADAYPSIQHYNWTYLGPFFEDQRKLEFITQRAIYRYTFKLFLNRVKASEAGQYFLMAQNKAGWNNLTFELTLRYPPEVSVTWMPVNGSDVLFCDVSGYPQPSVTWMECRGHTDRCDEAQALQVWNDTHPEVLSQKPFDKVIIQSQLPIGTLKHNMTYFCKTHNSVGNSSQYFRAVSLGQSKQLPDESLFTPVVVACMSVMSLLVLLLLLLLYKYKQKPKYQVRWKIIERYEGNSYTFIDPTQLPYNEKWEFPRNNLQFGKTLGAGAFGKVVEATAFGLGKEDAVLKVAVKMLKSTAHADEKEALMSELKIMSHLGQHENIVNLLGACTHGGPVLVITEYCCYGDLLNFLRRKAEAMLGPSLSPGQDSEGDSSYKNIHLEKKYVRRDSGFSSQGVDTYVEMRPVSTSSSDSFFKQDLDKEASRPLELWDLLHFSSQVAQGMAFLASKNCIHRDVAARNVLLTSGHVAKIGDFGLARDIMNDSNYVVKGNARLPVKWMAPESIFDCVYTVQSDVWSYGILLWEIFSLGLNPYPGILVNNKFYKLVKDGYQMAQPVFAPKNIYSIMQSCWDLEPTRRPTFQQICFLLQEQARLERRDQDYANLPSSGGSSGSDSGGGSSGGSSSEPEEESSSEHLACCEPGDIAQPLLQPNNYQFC

[6] = biological target: T2, Macrophage colony-stimulating factor 1 receptor (Mus musculus); assay: Inhibition of CSF-1R signaling pathway activation in female C57BL/6 mouse BMDM cells assessed as reduction in CSF-1R phosphorylation at Tyr723 residue at 100 nM preincubated with compounds for 4 hrs followed by M-CSF stimulation and measured after 30 mins by Western blot analysis; type: cell-based; settings: time 4.5 hrs
BMDM [7] = assay: Induction of repolarization of M2 like macrophage into M1 phenotype in female C57BL/6 mouse BMDM cells assessed as increase in Nos2 mRNA expression at 10 to 100 nM stimulated with mouse IL4/IL-13 for 24 hrs followed by compound addition and measured after 24 hrs by qPCR analysis; type: functional, cell-based; settings: dose 10-100 nM
MC-38 [8] = assay: Induction of apoptosis in mouse MC38 cells cocultured with condition medium of M2 macrophages assessed as early apoptotic cells at 30 nM by Annexin V/PI staining based flow cytometric analysis (reference value: 3.16 %); type: functional
[9] = AUC (0 to infinity) in Sprague-Dawley rat at 10 mg/kg, po; type: ADME, organism-based; settings: in vivo
[10] = Cmax in Sprague-Dawley rat at 10 mg/kg, po; type: ADME, organism-based; settings: in vivo
[11] = test system: Colorectal cancer organoid; assay: Antitumor activity against patient derived CRC organoids cocultured with IL-4/13 stimulated M2 macrophages assessed as reduction in number of organoids at 10 to 100 nM incubated for 72 hrs; type: functional, tissue-based; settings: Homo sapiens, Colorectum, dose 10-100 nM
[12] = biological target: NT-3 growth factor receptor (Homo sapiens) (UniProt Q16288); assay: Inhibition of TRKC (unknown origin) at 1 uM
Sequence of NT-3 growth factor receptor (Homo sapiens) (Q16288 32-839 limits assumed): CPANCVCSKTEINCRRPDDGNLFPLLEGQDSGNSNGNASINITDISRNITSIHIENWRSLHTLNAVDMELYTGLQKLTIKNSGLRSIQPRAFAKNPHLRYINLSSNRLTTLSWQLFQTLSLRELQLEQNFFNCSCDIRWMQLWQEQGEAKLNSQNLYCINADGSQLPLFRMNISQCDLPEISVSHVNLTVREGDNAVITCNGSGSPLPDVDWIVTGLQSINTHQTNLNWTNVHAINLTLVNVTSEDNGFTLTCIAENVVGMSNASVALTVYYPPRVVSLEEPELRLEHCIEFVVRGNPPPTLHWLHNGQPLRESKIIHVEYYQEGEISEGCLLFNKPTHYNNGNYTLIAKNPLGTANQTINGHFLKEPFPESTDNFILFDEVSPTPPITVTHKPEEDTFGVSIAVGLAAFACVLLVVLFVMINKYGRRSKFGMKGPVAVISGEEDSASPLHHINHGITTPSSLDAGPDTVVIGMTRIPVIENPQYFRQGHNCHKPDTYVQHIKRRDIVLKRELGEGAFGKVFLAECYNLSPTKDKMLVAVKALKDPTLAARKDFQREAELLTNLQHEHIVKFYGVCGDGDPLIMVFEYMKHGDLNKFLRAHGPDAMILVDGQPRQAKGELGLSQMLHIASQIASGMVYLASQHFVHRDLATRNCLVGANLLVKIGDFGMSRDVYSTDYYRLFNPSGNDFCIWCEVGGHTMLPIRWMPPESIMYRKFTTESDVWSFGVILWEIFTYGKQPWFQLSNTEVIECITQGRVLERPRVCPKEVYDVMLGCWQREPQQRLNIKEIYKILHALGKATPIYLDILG

[13] = biological target: T2, Macrophage colony-stimulating factor 1 receptor (Mus musculus); assay: Binding affinity to CSF-1R in female C57BL/6 mouse BMDM cells assessed as decrease in protein solubility at 100 nM incubated for 1 hrs in presence of 7 to 15 % of acetone/ethanol/acetic acid mixture by SIP assay; type: cell-based
MC-38 [14] = assay: Antitumor activity against mouse MC38 cells allografted in C57BL/6 mouse model assessed as upregulation of Il6 mRNA expression in tumor at 10 to 20 mg/kg, ip administered once daily for 14 days by qPCR analysis; type: functional, organism-based; settings: dose 10-20 mg/kg, time 14.0 day
[15] = test system: Colorectal cancer organoid; assay: Antitumor activity against patient derived CRC organoids cocultured with IL-4/13 stimulated M2 macrophages assessed as lytic death state at 10 to 100 nM incubated for 72 hrs; type: functional, tissue-based; settings: Homo sapiens, Colorectum, dose 10-100 nM
BMDM [16] = assay: as §1, with “number of M2 macrophages by measuring reduction in CD206” for “Mrc1 mRNA”, “immunofluorescence” for “qPCR”; type: functional, cell-based; settings: dose 10-100 nM
MC-38 [17] = assay: Induction of apoptosis in mouse MC38 cells assessed as early apoptotic cells at 100 nM by Annexin V/PI staining based flow cytometric analysis (reference value: 1.91 %); type: functional
MC-38 [18] = assay: Induction of apoptosis in mouse MC38 cells assessed as late apoptotic cells at 30 nM by Annexin V/PI staining based flow cytometric analysis (reference value: 0.85 %); type: functional
MC-38 [19] = assay: Antitumor activity against mouse MC38 cells allografted in C57BL/6 mouse model assessed as reduction in tumor volume at 10 to 20 mg/kg, ip administered once daily for 14 days; type: functional, organism-based; settings: dose 10-20 mg/kg, time 14.0 day
[20] = Terminal half-life in Sprague-Dawley rat at 1 mg/kg, iv; type: ADME, organism-based; settings: in vivo, read-out: beta t1/2 (converted)
MC-38 [21] = assay: Induction of apoptosis in mouse MC38 cells assessed as late apoptotic cells at 10 nM by Annexin V/PI staining based flow cytometric analysis (reference value: 0.85 %); type: functional
[22] = Clearance in Sprague-Dawley rat at 1 mg/kg, iv; type: ADME, organism-based; settings: in vivo
MC-38 [23] = assay: Inhibition of cell viability in mouse MC38 cells at 10 to 100 nM by MTT assay; type: functional, cell-based; settings: dose 10-100 nM

T1 sequence (P07333 whole entry): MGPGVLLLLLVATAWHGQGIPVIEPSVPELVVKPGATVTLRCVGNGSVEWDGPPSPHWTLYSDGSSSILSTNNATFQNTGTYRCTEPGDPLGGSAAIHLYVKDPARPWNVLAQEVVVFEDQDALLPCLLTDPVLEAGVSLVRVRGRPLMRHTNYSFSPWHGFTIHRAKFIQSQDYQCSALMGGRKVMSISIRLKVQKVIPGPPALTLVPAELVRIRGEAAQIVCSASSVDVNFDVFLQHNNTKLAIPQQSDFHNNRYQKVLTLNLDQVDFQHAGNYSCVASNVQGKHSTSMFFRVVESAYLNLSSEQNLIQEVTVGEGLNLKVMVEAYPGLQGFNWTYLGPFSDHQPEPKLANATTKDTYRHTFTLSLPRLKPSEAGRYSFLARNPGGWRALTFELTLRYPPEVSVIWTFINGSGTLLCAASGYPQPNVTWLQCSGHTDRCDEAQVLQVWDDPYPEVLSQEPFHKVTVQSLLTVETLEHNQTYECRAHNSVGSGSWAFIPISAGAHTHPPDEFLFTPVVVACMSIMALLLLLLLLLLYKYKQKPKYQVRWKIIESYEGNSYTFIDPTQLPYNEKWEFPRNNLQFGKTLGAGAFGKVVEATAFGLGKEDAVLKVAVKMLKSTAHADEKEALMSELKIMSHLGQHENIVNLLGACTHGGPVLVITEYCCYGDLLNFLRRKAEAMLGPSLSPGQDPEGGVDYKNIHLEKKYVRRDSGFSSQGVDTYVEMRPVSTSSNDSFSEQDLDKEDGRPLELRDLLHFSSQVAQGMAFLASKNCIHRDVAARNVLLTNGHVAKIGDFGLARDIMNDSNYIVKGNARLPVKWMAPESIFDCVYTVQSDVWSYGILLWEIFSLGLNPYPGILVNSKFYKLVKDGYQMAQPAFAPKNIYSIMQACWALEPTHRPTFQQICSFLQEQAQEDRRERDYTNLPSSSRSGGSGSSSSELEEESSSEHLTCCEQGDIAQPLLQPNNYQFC

inhibition [1]: Active
IC50 [4]: 20.1 nM
inhibition [5]: Active
inhibition [6]: Active
AUC(0-inf) [9]: 4170 ng·h/mL
Cmax [10]: 1580 ng/mL
inhibition [12]: Active
Activity [13]: Active
half-life [20]: 1.2 h
clearance [22]: 31.9 mL/min/kg
Compound: Cc1nc(NC(=O)N[C@@H]2CCCC[C@H]2O)ccc1Oc1c[nH]c2ncc(Cl)cc12
Activity (BMDM [2]): Active
Activity (MC-38 [3]): Active
Activity (BMDM [7]): Active
Activity (MC-38 [8]): 13.61%
Activity [11]: Active
Activity (MC-38 [14]): Active
Activity [15]: Active
Activity (BMDM [16]): Active
Activity (MC-38 [17]): 2.03%
Activity (MC-38 [18]): 0.87%
Activity (MC-38 [19]): Active; Better Activity Observed Than Plx3397-Treated Group
Activity (MC-38 [21]): 0.72%
inhibition (MC-38 [23]): Minimal_effect
